# Test system: brainstem
# Assay: Test of the effect of oral methylphenidate on evoked averaged brainstem response in a patient with ADHD
# Type: in vivo, human
# Method: To emphasize the importance of using the subject as its own reference when conducting herein described tests, FIG. 8a-c is showing a test of the effect of oral methylphenidate medication in a patient with ADHD. In this test each of the train of sound pulses will repeatedly present sound pulses to the patient for thirty seconds and for each sound pulse presented to the subject a corresponding response signal is recorded. The response signal for each set of train of sound pulses is then averaged to obtain an evoked averaged brainstem response.
# In FIG. 8a, a measuring with only unmodified sound pulses, i.e. the sound stimuli comprising only one train being a train of unmodified sound pulses 72. Sound stimuli were presented twice to the subject (at t0+0 and t0+60 sec) and the corresponding response signals were recorded and evoked averaged brainstem responses were established 74a, 74b. This was done when the patient was not under influence of methylphenidate medication, i.e. baseline or control state. The measured variable is here an absolute value 70 measured in μV of the amplitude of peak III. […] Both times the corresponding response signals were recorded and evoked averaged brainstem responses were established 74c, 74d.
# In FIG. 8b, a measuring with only modified sound pulses, i.e. the sound stimuli comprising only one train being a train of modified sound pulses 73. Sound stimuli were presented twice to the subject (at t0+0 and t0+60 sec) and the corresponding response signals were recorded and evoked averaged brainstem responses were established 75a, 75b. This was done when the patient was not under influence of methylphenidate medication, i.e. baseline or control state. The measured variable is here an absolute value 71 measured in NV of the amplitude of peak III. […] Both times the corresponding response signals were recorded and evoked averaged brainstem responses were established 75c, 75d. […]
smiles,measurement,setting,value
COC(=O)C(c1ccccc1)C1CCCCN1 (stereo not drawn) [methylphenidate],"methylphenidate effect on amplitude of peak III (absolute value), only modified sound pulses","single train of modified sound pulses, t1+0 and t1+60 sec vs drug-free baseline, FIG. 8b",no detectable methylphenidate effect could be established
same,"methylphenidate effect on amplitude of peak III (absolute value), only unmodified sound pulses","single train of unmodified sound pulses, t1+0 and t1+60 sec vs drug-free baseline, FIG. 8a",no detectable methylphenidate effect could be established
same,methylphenidate effect on relative measure (modified train averaged evoked brainstem response as a percentage of the unmodified average evoked response),"unmodified train followed by modified train, compared at t1+60 sec and t1+120 sec vs drug-free baseline, FIG. 8c",detectable methylphenidate effect could be seen

# Reference: patent US10575752B2, “System and method for determination of a brainstem response state development” (SensoDetect AB, priority 2010, dated 2020)
